Measured values as given in ChEMBL document CHEMBL2375352, “Spirostanoids with 1,4-dien-3-one or 3β,7α-diol-5,6-ene moieties from Solanum violaceum” (Bioorg Med Chem Lett, 2013).
≈ marks a conversion by molar mass, not a printed value.

Assays:
MDA-MB-231 = assay: Cytotoxicity against human MDA-MB-231 cells; type: functional, cell-based
HepG2 = assay: Cytotoxicity against human HepG2 cells; type: functional, cell-based
A549 = assay: Cytotoxicity against human A549 cells; type: functional, cell-based
[1] = Cytotoxicity against human Hep3B cells; type: functional, cell-based, Hep 3B2
MCF7 = assay: Cytotoxicity against human MCF7 cells; type: functional, cell-based

| Compound | IC50 (MDA-MB-231) [µg/mL] | IC50 (HepG2) [µg/mL] | IC50 (A549) [µg/mL] | IC50 [1] [µg/mL] | IC50 (MCF7) [µg/mL] |
| --- | --- | --- | --- | --- | --- |
| C[C@@H]1CC[C@@]2(OC1)O[C@H]1C[C@H]3[C@@H]4CCC5=CC(=O)CC[C@]5(C)[C@H]4CC[C@]3(C)[C@H]1[C@@H]2C [DIOSGENONE] | > 20 | 13.4 (≈ 32.6 µM) | > 20 | > 20 | > 20 |
| COc1cc([C@H]2OC[C@H]3[C@@H]2CO[C@@H]3c2cc(OC)c(O)c(OC)c2)cc(OC)c1O [SYRINGARESINOL] | > 20 | > 20 | > 20 | 15.7 (≈ 37.6 µM) | > 20 |
| CC[C@H](CC[C@@H](C)[C@H]1CC[C@H]2[C@@H]3C(=O)C=C4C[C@@H](O)CC[C@]4(C)[C@H]3CC[C@]12C)C(C)C | > 20 | > 20 | > 20 | > 20 | > 20 |
| COc1cccc2c1C(=O)c1c(O)c3c(c(O)c1C2=O)C[C@@](O)(C(=O)CO)C[C@@H]3O[C@H]1C[C@H](N)[C@H](O)[C@H](C)O1 [DOXORUBICIN] | 0.38 (≈ 0.699 µM) | 0.4 (≈ 0.736 µM) | – | 0.24 (≈ 0.442 µM) | 0.29 (≈ 0.534 µM) |
| C[C@H]1CC[C@@]2(OC1)O[C@H]1C[C@H]3[C@@H]4CC=C5C[C@@H](O)CC[C@]5(C)[C@H]4CC[C@]3(C)[C@H]1[C@@H]2C | > 20 | > 20 | > 20 | > 20 | > 20 |
| COc1cc2ccc(=O)oc2cc1O [SCOPOLETIN] | > 20 | > 20 | > 20 | > 13.2 | 17.1 (≈ 89 µM) |
| C[C@@H]1CC[C@@]2(OC1)O[C@H]1C[C@H]3[C@@H]4CC=C5C[C@@H](O)CC[C@]5(C)[C@H]4CC[C@]3(C)[C@H]1[C@@H]2C [DISOGENIN] | > 20 | > 20 | > 20 | > 20 | > 20 |
| CC(C)[C@@H](C)/C=C/[C@@H](C)[C@H]1CC[C@@H]2[C@]1(C)CC=C1[C@]23C=C[C@]2(C[C@@H](O)CC[C@]12C)OO3 | 7.32 (≈ 17.2 µM) | 7.73 (≈ 18.1 µM) | 10.4 (≈ 24.3 µM) | 15.5 (≈ 36.4 µM) | 9.18 (≈ 21.5 µM) |
| CC[C@H](/C=C/[C@@H](C)[C@H]1CC[C@H]2[C@@H]3C(=O)C=C4C[C@@H](O)CC[C@]4(C)[C@H]3CC[C@]12C)C(C)C | > 20 | > 20 | > 20 | > 20 | > 20 |
| CC(C)[C@@H](C)/C=C/[C@@H](C)[C@H]1CC[C@@H]2[C@]1(C)CC[C@H]1[C@]23C=C[C@]2(C[C@@H](O)CC[C@]12C)OO3 [ERGOSTEROL PEROXIDE] | 16.7 (≈ 39.1 µM) | 15.3 (≈ 35.6 µM) | 14.3 (≈ 33.4 µM) | 16.5 (≈ 38.5 µM) | 13.4 (≈ 31.3 µM) |
